Our source for the EC50 values is US10344019B2 (priority 2010, dated 2019).

Like-named read-outs stand apart in the source and are kept apart here.

What all share (assay type): cell-based
Assay [1] deals with HCV 1a RLuc cells (dicistronic genotype 1a H77 replicon, RLuc reporter). Briefly: microbe, parasite or virus in culture. The settings on record: Hepatitis C virus, read-out: 1a. The essentials:
(§1)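 Replicons used: genotype 1b Con1, 1a H77, 2a JFH-1, and a 2a JFH-1 chimera with J6-strain NS5A (M31 present), all dicistronic.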

Assay [2] concerns HCV 1b RLuc cells (dicistronic genotype 1b Con1 replicon, RLuc reporter). The experiment in a line: microbe, parasite or virus in culture. The settings on record: Hepatitis C virus, read-out: 1b (nM). The essentials: as §1
In assay [3] the test system is HCV 2a JFH-1 Rluc cells (dicistronic genotype 2a JFH-1 replicon, RLuc reporter). Briefly: microbe, parasite or virus in culture. The following applies: Hepatitis C virus, read-out: 2a JFH. The essentials:
as §1

The test system of assay [4] is HCV 2b Rluc cells (NS5A chimeric genotype 2a JFH-1 replicon with genotype 2b MD2b-1 NS5A gene, M31 present). The experiment in a line: microbe, parasite or virus in culture. The settings on record: Hepatitis C virus, read-out: 2b. The essentials:
(§2)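 Replicon cells stably carrying the listed RLuc-encoding dicistronic replicons were seeded and treated with DMSO serial dilutions of compound (10 mM stocks) diluted into culture medium. After 72 h, cells were lysed and Renilla luciferase activity measured. EC50 was derived by non-linear regression.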

The subject of assay [5] is HCV 3a RLuc cells (NS5A chimeric genotype 1b Con1 replicon with consensus genotype 3a NS5A gene). The experiment in a line: microbe, parasite or virus in culture. The settings on record: Hepatitis C virus. The essentials: as §2
The test system of assay [6] is HCV 4a Rluc cells (NS5A chimeric genotype 1b Con1 replicon with genotype 4a NS5A gene). The experiment in a line: microbe, parasite or virus in culture. The settings on record: Hepatitis C virus, read-out: 4a. The essentials: as §2
Assay [7] relates to Q30R in genotype 1a NS5A, 1a Rluc replicon transfected into Huh-7 cured-51 cells. The experiment in a line: HCV replicon assay, resistance mutant 1a Q30R. The following applies: Hepatitis C virus, Huh-7, read-out: 1a Q30R. Put shortly: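 Cells were Huh-7 cured-51 transfected with replicon RNA of a genotype 1a H77 RLuc replicon carrying site-directed Q30R in NS5A.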
In general terms: Replicon systems follow genome replication, usually without infectious particles.

Assay [8] deals with HCV 2a Rluc cells (NS5A chimeric genotype 2a JFH-1 replicon with genotype 2a J6 strain NS5A gene, M31 present). Briefly: HCV replicon reporter assay, genotype 2a J6 (M31 present). The following applies: Hepatitis C virus, read-out: 2a J6. The essentials: as §1
The mark [9] stands for this setting: genotype 2a JFH-1 RLuc replicon.
Setting [10] is: read-out: 3a, genotype 3a NS5A chimeric replicon.
The mark [11] stands for this setting: read-out: 3a, genotype 3a replicon.

For `COC[C@H]1C[C@@H](c2nc3ccc4cc5c(cc4c3[nH]2)OCc2cc(-c3cnc([C@@H]4C[C@H](C)CN4C(=O)[C@@H](NC(=O)OC)C(C)C)[nH]3)ccc2-5)N(C(=O)[C@H](NC(=O)OC)c2ccccc2)C1` [Example 555], the EC50 in assay [1] (genotype 1a H77 RLuc replicon) was 1 to 999 pM; in assay [2] it was 0.021 nM; in assay [3] (setting [9]) it was 1 to 999 pM; in assay [4], 1 to 999 pM; in assay [5] (setting [10]), 1 to 990 pM; in assay [6], 1 to 990 pM. Moreover, the EC50 in assay [7] and in assay [8] was 1 to 999 pM in each case.

On to `COC(=O)N[C@H](C(=O)N1C[C@@H](C)C[C@H]1c1nc2ccc3cc4c(cc3c2[nH]1)OCc1cc(-c2cnc([C@@H]3CCCN3C(=O)[C@H](NC(=O)OC)c3ccccc3)[nH]2)ccc1-4)C(C)C` [Example 565], for which the EC50 in assay [1] (genotype 1a H77 RLuc replicon) was 1 to 999 pM; in assay [2] it was 0.017 nM; in assay [3] (setting [9]), 1 to 999 pM; in assay [4], 1 to 999 pM; in assay [5] (setting [10]), 1 to 990 pM; in assay [6], 1 to 990 pM. The EC50 in assay [7] and in assay [8] was 1 to 999 pM in each case.

With `COC[C@H]1C[C@@H](c2ncc(-c3ccc(-c4ccc5c(ccc6nc([C@@H]7CCCN7C(=O)[C@@H](NC(=O)OC)C(C)C)[nH]c65)c4)cc3)[nH]2)N(C(=O)[C@H](NC(=O)OC)c2ccccc2)C1` [Example 446], the EC50 in assay [1] (genotype 1a replicon) is 1 to 999 pM; in assay [2] it was 0.03 nM; in assay [3] (genotype 2a JFH-1 replicon), 1 to 999 pM; in assay [4], 1 to 999 pM; in assay [5] (setting [11]) it was 1 to 990 pM; in assay [6], 1 to 990 pM. Moreover, the EC50 in assay [7] and in assay [8] was 1 to 999 pM each time.

Turning to `COC(=O)N[C@H](C(=O)N1CCC[C@H]1c1ncc(-c2cc3c4c(c2)OCc2cc(-c5cnc([C@@H]6CCCN6C(=O)[C@H](NC(=O)OC)c6ccccc6)[nH]5)cc(c2-4)OC3)[nH]1)C(C)C` [Example 25c], the EC50 is 1 to 999 pM in assay [1] (72 h, Table 1, genotype 1a H77 replicon, 72 hours); 0.031 nM in assay [2] (72 h); 1 to 999 pM in assay [3] (72 h, Table 1, genotype 2a JFH-1 replicon, 72 hours); 1 to 999 pM in assay [4]; 1 to 990 pM in assay [5] (read-out: 3a, Table 1, genotype 3a NS5A chimeric replicon); 1 to 990 pM in assay [6]. Moreover, the EC50 was in the range of 1 to 999 pM in assay [7] and 1000 to 44000 pM in assay [8].

`COC(=O)N[C@H](C(=O)N1CCC[C@H]1c1ncc(-c2ccc(-c3ccc4c(ccc5nc([C@@H]6CCCN6C(=O)[C@@H](NC(=O)OC)C(C)C)[nH]c54)c3)c(C#Cc3ccccc3)c2)[nH]1)C(C)C` [Example 438]: the EC50 was 1 to 999 pM in assay [1] (genotype 1a replicon); 0.003 nM in assay [2]; 1 to 999 pM in assay [3] (genotype 2a JFH-1 replicon); more than 44000 pM in assay [4]; 1 to 990 pM in assay [5] (setting [11]); 1 to 990 pM in assay [6]. Besides, the EC50 in assay [7] is 1000 to 44000 pM; in assay [8], more than 44000 pM.

On to `COC(=O)N[C@H](C(=O)N1CCC[C@H]1c1nc2ccc3cc(-c4ccc5c(ccc6nc([C@@H]7[C@H]8CC[C@H](C8)N7C(=O)[C@H](NC(=O)OC)c7ccccc7)[nH]c65)c4)ccc3c2[nH]1)C(C)C` [Example 325], for which the EC50 is 1 to 999 pM in assay [1] (genotype 1a replicon); 0.018 nM in assay [2]; 1 to 999 pM in assay [3] (genotype 2a JFH-1 replicon); 1000 to 44000 pM in assay [4]; 1 to 990 pM in assay [5] (setting [11]); 1 to 990 pM in assay [6]. In addition, the EC50 in assay [7] was 1000 to 44000 pM; in assay [8], 1 to 999 pM.

As for `COC(=O)N[C@H](C(=O)N1[C@@H](C)CC[C@H]1c1ncc(-c2ccc3c(c2)COc2cc4c(ccc5nc([C@@H]6CC[C@H](C)N6C(=O)[C@@H](NC(=O)OC)C(C)C)[nH]c54)cc2-3)[nH]1)C(C)C` [Example 585], the EC50 is 1 to 999 pM in assay [1] (genotype 1a H77 RLuc replicon); 0.009 nM in assay [2]; 1 to 999 pM in assay [3] (setting [9]); 1 to 999 pM in assay [4]; 1 to 990 pM in assay [5] (setting [10]); 1 to 990 pM in assay [6]. In addition, the EC50 in assay [7] and in assay [8] was 1 to 999 pM in each case.

`COC(=O)N[C@H](C(=O)N1CCC[C@H]1c1ncc(-c2ccc3c(c2)COc2cc4c(ccc5nc([C@@H]6CCCN6C(=O)[C@H](NC(=O)OC)c6ccccc6)[nH]c54)cc2-3)[nH]1)C(C)C` [Example 423]: the EC50 in assay [1] (genotype 1a replicon) was 1 to 999 pM; in assay [2] it was 0.02 nM; in assay [3] (genotype 2a JFH-1 replicon) it was 1 to 999 pM; in assay [4], 1 to 999 pM; in assay [5] (setting [11]) it was 1 to 990 pM; in assay [6], 1 to 990 pM. Moreover, the EC50 in assay [7] and in assay [8] was 1 to 999 pM throughout.

With `COC[C@H]1C[C@@H](c2ncc(-c3cc4c5c(c3)OCc3cc(-c6cnc([C@@H]7CC[C@H](C)N7C(=O)[C@@H](NC(=O)OC)C(C)C)[nH]6)cc(c3-5)OC4)[nH]2)N(C(=O)[C@H](NC(=O)OC)c2ccccc2)C1` [Example 596], the EC50 in assay [1] (genotype 1a H77 RLuc replicon) was 1 to 999 pM; in assay [2] it was 0.013 nM; in assay [3] (setting [9]) it was 1 to 999 pM; in assay [4], 1 to 999 pM; in assay [5] (setting [10]), 1 to 990 pM; in assay [6], 1 to 990 pM. Besides, the EC50 in assay [7] and in assay [8] was 1 to 999 pM in each case.

As to `COC[C@H]1C[C@@H](c2nc3ccc4cc5c(cc4c3[nH]2)OCc2cc(-c3cnc([C@@H]4CCCN4C(=O)[C@@H](NC(=O)OC)C(C)C)[nH]3)ccc2-5)N(C(=O)[C@@H](NC(=O)OC)C(C)C)C1` [Example 495], the EC50 in assay [1] (genotype 1a H77 RLuc replicon) is 1 to 999 pM; in assay [2], 0.026 nM; in assay [3] (setting [9]), 1 to 999 pM; in assay [4], 1 to 999 pM; in assay [5] (setting [10]), 1 to 990 pM; in assay [6], 1 to 990 pM. Further, the EC50 in assay [7] and in assay [8] was 1 to 999 pM throughout.

Take `COC[C@H]1C[C@@H](c2nc3ccc4cc5c(cc4c3[nH]2)OCc2cc(-c3cnc([C@@H]4CCCN4C(=O)[C@H](NC(=O)OC)c4ccccc4)[nH]3)ccc2-5)N(C(=O)[C@@H](NC(=O)OC)C(C)C)C1` [Example 544]: the EC50 was 1 to 999 pM in assay [1] (genotype 1a H77 RLuc replicon); 0.026 nM in assay [2]; 1 to 999 pM in assay [3] (setting [9]); 1 to 999 pM in assay [4]; 1 to 990 pM in assay [5] (setting [10]); 1 to 990 pM in assay [6]. Further, the EC50 in assay [7] and in assay [8] was 1 to 999 pM each time.

`COC[C@H]1C[C@@H](c2nc3ccc4cc(-c5ccc6c(ccc7nc([C@@H]8CCCN8C(=O)[C@H](NC(=O)OC)c8ccccc8)[nH]c76)c5)ccc4c3[nH]2)N(C(=O)[C@@H](NC(=O)OC)C(C)C)C1` [Example 454]: the EC50 in assay [1] (genotype 1a replicon) is 1 to 999 pM; in assay [2], 0.028 nM; in assay [3] (genotype 2a JFH-1 replicon) it was 1 to 999 pM; in assay [4], 1 to 999 pM; in assay [5] (setting [11]), 1 to 990 pM; in assay [6], 1 to 990 pM. The EC50 in assay [7] and in assay [8] was 1 to 999 pM in each case.

In the case of `COC[C@H]1C[C@@H](c2nc3ccc4cc(-c5ccc6c(ccc7nc([C@@H]8C[C@H]9C[C@H]9N8C(=O)[C@H](NC(=O)OC)c8ccccc8)[nH]c76)c5)ccc4c3[nH]2)N(C(=O)[C@@H](NC(=O)OC)C(C)C)C1` [Example 548], the EC50 in assay [1] (genotype 1a H77 RLuc replicon) was 1 to 999 pM; in assay [2] it was 0.006 nM; in assay [3] (setting [9]), 1 to 999 pM; in assay [4] it was 1 to 999 pM; in assay [5] (setting [10]), 1 to 990 pM; in assay [6], 1 to 990 pM. Moreover, the EC50 in assay [7] and in assay [8] was 1 to 999 pM throughout.

Take `COC[C@H]1C[C@@H](c2nc3ccc4cc(-c5ccc6c(ccc7nc([C@@H]8C[C@H](SC)CN8C(=O)[C@@H](NC(=O)OC)C(C)C)[nH]c76)c5)ccc4c3[nH]2)N(C(=O)[C@H](NC(=O)OC)c2ccccc2)C1` [Example 546]: the EC50 is 1 to 999 pM in assay [1] (genotype 1a H77 RLuc replicon); 0.048 nM in assay [2]; 1 to 999 pM in assay [3] (setting [9]); 1 to 999 pM in assay [4]; 1 to 990 pM in assay [5] (setting [10]); 1 to 990 pM in assay [6]. Besides, the EC50 in assay [7] and in assay [8] was 1 to 999 pM each time.

Consider `COC(=O)N[C@H](C(=O)N1[C@H](c2nc3ccc4cc5c(cc4c3[nH]2)OCc2cc(-c3cnc(C4CCCN4C(=O)[C@@H](NC(=O)OC)C4CCOCC4)[nH]3)ccc2-5)C[C@@H]2CCC[C@@H]21)C(C)C` (stereo partly drawn) [Example 575], for which the EC50 in assay [1] (genotype 1a H77 RLuc replicon) was 1 to 999 pM; in assay [2], 0.029 nM; in assay [3] (setting [9]), 1 to 999 pM; in assay [4], 1 to 999 pM; in assay [5] (setting [10]), 1 to 990 pM; in assay [6] it was 1 to 990 pM. Besides, the EC50 in assay [7] and in assay [8] was 1 to 999 pM each time.
